PMC2662629 (Pharmaceutical research, 2008)
pIC50: −log10 of the molar value. Several values for one entry are separate records, joined by “and”; a condition that tells them apart may be missing. Identical values can stand only once. Entries after “also recorded” stand apart in the source; their conditions may differ. Like-named read-outs stand apart in the source and are kept apart here.

How the values were obtained:
[1] = biological target: T1, ABCG2 (Rattus norvegicus, UniProt Q80W57); assay: Bodipy FL prazosin transport assay in isolated rat brain capillaries; assay type: cell-based; conditions: for pIC50: rat brain capillaries
T1 sequence (Q80W57 1-657): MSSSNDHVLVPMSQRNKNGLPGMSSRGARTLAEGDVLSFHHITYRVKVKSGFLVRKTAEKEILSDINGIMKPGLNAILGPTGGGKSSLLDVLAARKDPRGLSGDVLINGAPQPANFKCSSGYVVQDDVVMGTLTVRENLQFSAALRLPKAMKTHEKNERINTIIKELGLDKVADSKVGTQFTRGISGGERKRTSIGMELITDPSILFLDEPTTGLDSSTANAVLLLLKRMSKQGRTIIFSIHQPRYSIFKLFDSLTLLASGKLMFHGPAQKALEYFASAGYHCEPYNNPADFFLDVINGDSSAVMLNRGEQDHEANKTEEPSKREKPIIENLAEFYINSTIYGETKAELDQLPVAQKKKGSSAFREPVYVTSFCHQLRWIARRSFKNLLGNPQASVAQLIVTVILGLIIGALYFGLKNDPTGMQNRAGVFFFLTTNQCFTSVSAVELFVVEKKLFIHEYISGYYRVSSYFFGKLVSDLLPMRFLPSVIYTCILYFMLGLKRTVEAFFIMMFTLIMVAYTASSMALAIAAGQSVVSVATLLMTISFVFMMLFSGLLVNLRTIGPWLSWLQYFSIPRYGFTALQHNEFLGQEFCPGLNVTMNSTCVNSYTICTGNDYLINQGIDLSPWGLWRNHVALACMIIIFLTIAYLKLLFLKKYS

[2] = system: MCF-7 cells; conditions: read-out: IC50 for MCF-7 cells; cited from earlier work
[3] = biological target: T2, human ABCG2 (Homo sapiens, UniProt Q9UNQ0); assay type: binding
T2 sequence (Q9UNQ0 1-655): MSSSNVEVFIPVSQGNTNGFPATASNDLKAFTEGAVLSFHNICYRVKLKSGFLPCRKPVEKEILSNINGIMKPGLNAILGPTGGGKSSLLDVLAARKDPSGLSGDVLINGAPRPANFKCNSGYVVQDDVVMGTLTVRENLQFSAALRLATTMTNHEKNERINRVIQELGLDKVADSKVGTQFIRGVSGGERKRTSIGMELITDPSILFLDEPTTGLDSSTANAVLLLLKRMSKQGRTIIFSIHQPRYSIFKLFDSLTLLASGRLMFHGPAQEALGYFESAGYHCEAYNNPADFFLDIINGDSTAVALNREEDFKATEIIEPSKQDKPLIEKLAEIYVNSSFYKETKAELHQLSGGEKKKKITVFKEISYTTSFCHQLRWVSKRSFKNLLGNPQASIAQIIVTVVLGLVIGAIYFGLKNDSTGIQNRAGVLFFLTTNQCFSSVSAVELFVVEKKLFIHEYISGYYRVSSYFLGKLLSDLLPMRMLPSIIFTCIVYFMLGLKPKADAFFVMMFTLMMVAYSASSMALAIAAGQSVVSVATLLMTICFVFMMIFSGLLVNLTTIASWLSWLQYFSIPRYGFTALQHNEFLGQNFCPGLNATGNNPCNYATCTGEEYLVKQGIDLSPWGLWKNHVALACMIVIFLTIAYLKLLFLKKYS

[4] = system: mouse ABCG2; assay type: in vivo, mice
[5] = biological target: T3, mouse ABCG2 (Mus musculus, UniProt Q7TMS5); assay type: in vivo, mice
T3 sequence (Q7TMS5 1-657): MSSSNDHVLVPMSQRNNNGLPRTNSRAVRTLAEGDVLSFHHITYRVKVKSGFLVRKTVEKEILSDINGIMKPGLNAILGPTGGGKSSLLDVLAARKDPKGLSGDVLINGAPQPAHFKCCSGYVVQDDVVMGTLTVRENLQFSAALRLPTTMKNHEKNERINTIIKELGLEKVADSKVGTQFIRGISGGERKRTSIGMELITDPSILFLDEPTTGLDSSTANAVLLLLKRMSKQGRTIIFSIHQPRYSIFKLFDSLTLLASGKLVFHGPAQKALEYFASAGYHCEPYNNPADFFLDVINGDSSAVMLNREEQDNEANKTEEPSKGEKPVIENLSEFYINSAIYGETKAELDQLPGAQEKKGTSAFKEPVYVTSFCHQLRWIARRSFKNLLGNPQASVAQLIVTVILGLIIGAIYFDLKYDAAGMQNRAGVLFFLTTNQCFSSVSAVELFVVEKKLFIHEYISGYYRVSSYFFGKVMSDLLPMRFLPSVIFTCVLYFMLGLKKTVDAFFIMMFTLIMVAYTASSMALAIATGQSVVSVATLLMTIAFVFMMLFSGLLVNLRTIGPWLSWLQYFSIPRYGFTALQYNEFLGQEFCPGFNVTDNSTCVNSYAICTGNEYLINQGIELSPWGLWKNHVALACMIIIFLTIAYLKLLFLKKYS

[6] = system: mouse ABCG2; assay type: in vivo, mice; conditions: FVB, mouse, plasma, oral, 20 mg/kg
[7] = system: pancreatic cancer; conditions: oral administration of 8 g curcumin daily up to 18 months; cited from earlier work
[8] = clinical trials in humans; cited from earlier work

For `COc1ccc2c3c([nH]c2c1)[C@H](C=C(C)C)N1C(=O)[C@@H]2CCCN2C(=O)[C@@H]1C3` [FTC, fumitremorgin C], the “inhibition of the efflux of Bodipy-prazosin in brain capillaries” value [1] was 50% and the “luminal BODIPY FL prazosin fluorescence, % of control capillaries” value ([1]; 5 μM inhibitor, steady state) was “approximately 50%”.

For `COc1cc2c(cc1OC)CN(CCc1ccc(NC(=O)c3cccc4c(=O)c5cccc(OC)c5[nH]c34)cc1)CC2` [GF120918], the pIC50 [2] is given as 4.74.

In the case of `COc1ccc2c3c([nH]c2c1)[C@H](CC(C)C)N1C(=O)[C@H](CCC(=O)OC(C)(C)C)NC(=O)[C@@H]1C3` [Ko143], the pIC50 [2] is given as 4.72.

For `O=C(O)c1cc(/N=N/c2ccc(S(=O)(=O)Nc3ccccn3)cc2)ccc1O` [SASP, Sulfasalazine], the pIC50 [3] was 5.99, the “SASP plasma level in abcg2-/- mice relative to abcb1a-/- and wild-type groups” value ([4]; 90 min after SASP 20 mg/kg PO) was 10-20 fold and the concentration at 90 min ([4]; FVB, mouse, plasma, oral, 20 mg/kg) was ~540 ng/mL and 12400 ng/mL. It also gave a half-life ([5]; FVB, mouse, plasma, po) of 5.02 h, a half-life ([5]; FVB, mouse, plasma, po, 20 mg/kg) of 1.08 h and a Cmax ([5]; FVB, mouse, plasma, po, 20 mg/kg, Cmax of SASP, SASP 20 mg/kg PO, vehicle pretreatment, wild-type mice) of 1230 ng/mL. The concentration at 24 h [6] was less than 1 ng/mL.

In the case of `COc1cc(/C=C/C(=O)CC(=O)/C=C/c2ccc(O)c(OC)c2)ccc1O` [curcumin, Diferuoyl methane], the pIC50 ([1]; IC50, inhibition of ABCG2-mediated efflux of BODIPY FL prazosin, ex vivo) is given as 7.72, the pIC50 ([1]; IC50, inhibition of ABCG2 activity (luminal BODIPY FL prazosin fluorescence), 2 μM BODIPY FL prazosin, 1 h, room temperature) is given as 7.71 and the “progression of pancreatic cancer” value [7] is given as “inhibited progression”. For the same compound, the “systemic bioavailability of orally administered curcumin” value [8] was “relatively low”, the “effect of curcumin on the levels of SASP” value ([4]; abcg2-/- mice, curcumin 400 mg/kg PO, 90 min after SASP 20 mg/kg PO) was “no significant effect; also recorded: no significant increase” and the “effect of curcumin pretreatment on plasma concentration of SASP” value ([5]; curcumin 40 mg/kg PO 1 h before SASP 20 mg/kg PO, FVB-WT mice, data not shown) was “no effect”.
